Test results from ChEMBL document CHEMBL4616619, “Acetylene Group, Friend or Foe in Medicinal Chemistry” (J Med Chem, 2020).
Converted amounts (≈) assume the structure as drawn.

Experiments:
[1] = target: T1, Dihydropyrimidine dehydrogenase [NADP(+)] (Bos taurus) (UniProt Q28007); test: Inactivation of bovine liver DHPDHase assessed as Kinact in presence of NADPH
T1 sequence (whole entry): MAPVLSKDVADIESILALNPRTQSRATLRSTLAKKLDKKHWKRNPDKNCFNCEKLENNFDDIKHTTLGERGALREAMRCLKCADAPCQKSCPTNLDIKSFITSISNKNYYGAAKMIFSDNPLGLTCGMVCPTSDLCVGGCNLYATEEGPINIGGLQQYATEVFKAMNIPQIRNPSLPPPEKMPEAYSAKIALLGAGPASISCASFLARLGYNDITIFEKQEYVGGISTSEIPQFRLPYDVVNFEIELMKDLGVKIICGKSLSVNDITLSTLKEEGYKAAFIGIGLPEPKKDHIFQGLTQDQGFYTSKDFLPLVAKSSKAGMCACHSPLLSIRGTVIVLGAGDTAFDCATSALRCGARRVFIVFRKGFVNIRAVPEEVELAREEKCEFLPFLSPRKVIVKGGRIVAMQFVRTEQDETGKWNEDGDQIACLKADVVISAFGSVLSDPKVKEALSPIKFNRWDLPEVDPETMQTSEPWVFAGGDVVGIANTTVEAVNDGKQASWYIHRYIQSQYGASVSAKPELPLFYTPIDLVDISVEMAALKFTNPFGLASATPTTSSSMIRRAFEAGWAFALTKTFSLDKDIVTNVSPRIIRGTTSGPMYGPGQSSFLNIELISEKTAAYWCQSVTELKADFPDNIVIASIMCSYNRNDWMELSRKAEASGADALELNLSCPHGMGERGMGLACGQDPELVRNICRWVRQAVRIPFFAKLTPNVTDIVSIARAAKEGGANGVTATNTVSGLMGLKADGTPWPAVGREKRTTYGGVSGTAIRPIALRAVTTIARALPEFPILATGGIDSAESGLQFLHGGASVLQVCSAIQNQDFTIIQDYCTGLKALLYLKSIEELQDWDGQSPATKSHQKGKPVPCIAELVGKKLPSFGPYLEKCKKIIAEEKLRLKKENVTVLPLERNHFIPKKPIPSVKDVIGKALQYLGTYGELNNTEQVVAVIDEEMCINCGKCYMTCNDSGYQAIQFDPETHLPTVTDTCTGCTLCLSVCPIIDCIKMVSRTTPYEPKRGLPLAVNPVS

Acetylcholinesterase = Acetylcholinesterase (Homo sapiens, UniProt P22303); test: Inhibition of acetylcholinesterase (unknown origin)
Cholinesterase = Cholinesterase (Homo sapiens, UniProt P06276); test: Inhibition of butyrylcholinesterase (unknown origin)
[2] = Half life in cynomolgus monkey; type: ADME, Macaca fascicularis; settings: in vivo
[3] = Inactivation of CYP2B1 (unknown origin); set-up: species or system Homo sapiens
Homo sapiens = species: Homo sapiens; test: Inactivation of CYP2B1 (unknown origin) assessed as Kinact
[4] = system: Human immunodeficiency virus 1; test: Antiviral activity against HIV1 3B infected in human MT2 cells; type: functional, organism-based; settings: Human immunodeficiency virus 1, 3B
[5] = Cytotoxicity against human MT2 cells; type: cell-based
rhinovirus B14 = test: Antiviral activity against Human rhinovirus 14 infected in HeLa […] cells after 2 days by XTT/PMS assay; type: functional, organism-based; settings: Rhinovirus B, 48 h
[6] = Half life in human plasma at 25 uM after 1 to 3 hrs by reversed-phase HPLC; type: ADME, cell-free
[7] = Thermodynamic aqueous solubility of compound in pH 7 buffer at 1 to 2 mg after 4 hrs by HPLC analysis; type: physicochemical; settings: read-out: Therm_solubility
[8] = Stability in human liver microsomes assessed as compound metabolized at 25 uM after 30 mins in presence of NADPH by HPLC analysis; type: ADME, Microsome; settings: read-out: Drug metabolism
[9] = target: T2, Thymidine kinase, cytosolic (Homo sapiens, UniProt P04183); test: (§1) Substrate activity at human thymidine kinase 1 assessed as Km incubated for 24 hrs; type: ADME
T2 sequence (P04183 whole entry): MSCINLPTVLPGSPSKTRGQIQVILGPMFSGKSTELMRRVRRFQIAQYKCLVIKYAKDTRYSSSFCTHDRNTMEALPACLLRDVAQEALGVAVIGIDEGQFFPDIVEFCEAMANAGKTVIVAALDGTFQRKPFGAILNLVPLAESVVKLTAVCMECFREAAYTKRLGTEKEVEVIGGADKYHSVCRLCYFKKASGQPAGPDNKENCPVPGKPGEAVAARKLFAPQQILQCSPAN

[10] = target: T3, Amine oxidase [flavin-containing] A (Homo sapiens, UniProt P21397); test: Inhibition of human MAO-A using Tyramine hydrochloride as substrate preincubated for 30 mins followed by substrate addition and measured for 1 hr by fluorometric method
T3 sequence (P21397 whole entry): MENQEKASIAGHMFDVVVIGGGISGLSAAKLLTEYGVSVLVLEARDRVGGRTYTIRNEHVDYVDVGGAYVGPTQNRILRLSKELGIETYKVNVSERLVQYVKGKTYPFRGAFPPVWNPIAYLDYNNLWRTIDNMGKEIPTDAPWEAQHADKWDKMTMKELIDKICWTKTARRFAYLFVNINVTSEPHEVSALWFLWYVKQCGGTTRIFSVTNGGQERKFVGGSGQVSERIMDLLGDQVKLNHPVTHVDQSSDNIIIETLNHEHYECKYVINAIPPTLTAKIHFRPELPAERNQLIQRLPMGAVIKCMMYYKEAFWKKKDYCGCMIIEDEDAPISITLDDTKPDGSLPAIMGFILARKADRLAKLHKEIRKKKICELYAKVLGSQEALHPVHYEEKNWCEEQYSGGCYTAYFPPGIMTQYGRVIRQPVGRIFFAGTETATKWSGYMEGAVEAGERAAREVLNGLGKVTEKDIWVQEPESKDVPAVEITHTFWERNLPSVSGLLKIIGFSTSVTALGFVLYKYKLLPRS

[11] = Substrate activity at UDP-glucuronosyltransferase in cynomolgus monkey microsomes assessed as Vmax; type: ADME, Macaca fascicularis
[12] = Plasma clearance in iv dosed cynomolgus monkey; type: ADME, organism-based, Macaca fascicularis
Human rhinovirus sp. = test: Antiviral activity against Human rhinovirus; type: functional, organism-based
Poliovirus 1 = test: Antiviral activity against Poliovirus type 1 Mahoney infected in African green monkey BSC1 cells by crystal violet staining based plaque reduction assay; type: functional, organism-based; settings: Enterovirus C, BSC-1
[13] = Cmax in rhesus monkey at 8 mg/kg, po; type: ADME, organism-based, Macaca mulatta; set-up: dose 8 mg/kg, route oral; settings: in vivo
[14] = target: T3, Amine oxidase [flavin-containing] A; test: Inhibition of human MAO-A
[15] = system: Human immunodeficiency virus 1; test: Antiviral activity against HIV-1 3B infected in human MT4 cells incubated for 5 days by MTT assay; type: functional, organism-based; settings: Human immunodeficiency virus 1, 3B, MT4, 120 h
[16] = Cytotoxicity against human MT4 cells; type: cell-based
[17] = Selectivity ratio of CC50 for human MT4 cells to IC50 for HIV-1 3B; type: toxicity; settings: read-out: Ratio CC50/IC50
[18] = substrate: C#C[C@@]1(CO)C=C[C@H](n2cc(C)c(=O)[nH]c2=O)O1; test: as §1; type: ADME

Acetylcholinesterase, sequence (P22303 whole entry): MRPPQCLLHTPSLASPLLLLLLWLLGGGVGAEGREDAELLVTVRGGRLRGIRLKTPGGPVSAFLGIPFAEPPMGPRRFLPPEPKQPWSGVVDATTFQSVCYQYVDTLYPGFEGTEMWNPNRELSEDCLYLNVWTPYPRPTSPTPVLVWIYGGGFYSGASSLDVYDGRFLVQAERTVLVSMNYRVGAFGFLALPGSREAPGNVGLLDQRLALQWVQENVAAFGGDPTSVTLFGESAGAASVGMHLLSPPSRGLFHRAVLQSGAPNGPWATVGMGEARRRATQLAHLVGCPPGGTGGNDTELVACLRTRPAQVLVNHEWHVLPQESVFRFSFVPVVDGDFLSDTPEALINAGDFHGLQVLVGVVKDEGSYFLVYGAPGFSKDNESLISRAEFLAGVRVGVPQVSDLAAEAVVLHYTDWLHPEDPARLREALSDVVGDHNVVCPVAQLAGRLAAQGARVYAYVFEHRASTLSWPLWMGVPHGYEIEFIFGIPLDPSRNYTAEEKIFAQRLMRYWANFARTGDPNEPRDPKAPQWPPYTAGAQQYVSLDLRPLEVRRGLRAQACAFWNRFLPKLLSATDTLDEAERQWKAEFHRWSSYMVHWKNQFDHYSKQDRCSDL
Cholinesterase, sequence (P06276 whole entry): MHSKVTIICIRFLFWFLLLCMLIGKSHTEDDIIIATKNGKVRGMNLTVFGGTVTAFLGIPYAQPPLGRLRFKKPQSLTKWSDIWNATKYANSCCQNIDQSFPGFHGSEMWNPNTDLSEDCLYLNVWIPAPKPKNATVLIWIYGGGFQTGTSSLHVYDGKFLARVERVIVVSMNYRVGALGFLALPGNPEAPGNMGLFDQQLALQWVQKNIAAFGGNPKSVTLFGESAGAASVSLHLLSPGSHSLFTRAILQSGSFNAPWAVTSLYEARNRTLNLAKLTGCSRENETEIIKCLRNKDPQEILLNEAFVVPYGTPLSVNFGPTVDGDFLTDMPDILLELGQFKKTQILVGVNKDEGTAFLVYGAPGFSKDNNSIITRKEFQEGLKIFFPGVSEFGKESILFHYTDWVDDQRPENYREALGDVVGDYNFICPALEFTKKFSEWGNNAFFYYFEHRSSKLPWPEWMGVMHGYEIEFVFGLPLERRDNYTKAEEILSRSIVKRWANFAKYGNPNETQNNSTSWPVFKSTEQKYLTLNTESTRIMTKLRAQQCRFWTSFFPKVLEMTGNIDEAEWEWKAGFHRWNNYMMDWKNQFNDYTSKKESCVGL

Q: For `N#Cc1cnc(O)nc1O`, which Kinact [1] is on record?
A: 0.78 min⁻¹

Q: Which IC50 (Acetylcholinesterase) does the source give for `C#CCNCc1cc2cc(OCc3ccccc3)ccc2[nH]1` here?
A: > 100 µM

Q: And the IC50 (Cholinesterase)?
A: > 100 µM

Q: Which Kinact [1] does the source give for `O=c1[nH]cc(C(F)(F)F)c(=O)[nH]1` here?
A: 0.23 min⁻¹

Q: With `CC#Cn1ccc(=O)[nH]c1=O` as the molecule, how does the Kinact [1] read?
A: 0.46 min⁻¹

Q: With `CC(C#Cc1ccc(Cc2ccc(F)cc2)s1)N(O)C(N)=O` (stereo unspecified) as the molecule, how does the half-life [2] read?
A: 14.5 h

Q: For `C#CCN(C)[C@H](C)Cc1ccccc1` [SELEGILINE], which Ki [3] is on record?
A: 1 µM

Q: And the Kinact (Homo sapiens)?
A: 0.23 min⁻¹

Q: For `[N-]=[N+]=C1C=NC(=O)NC1=O`, which Kinact [1] is on record?
A: 1.68 min⁻¹

Q: What does the source list for `Cc1cn([C@H]2C=C[C@@](C#N)(CO)O2)c(=O)[nH]c1=O`?
A: EC50 [4]: 7 µM; CC50 [5]: > 100 µM

Q: Which results are given for `CCOC(=O)/C=C/[C@H](CC1CCNC1=O)NC(=O)[C@H](Cc1ccc(F)c(F)c1)n1cccc(NC(=O)c2cc(C)on2)c1=O` (stereo partly specified)?
A: EC50 (rhinovirus B14): 0.011 µM; half-life at 25 µM [6]: 1.4 h; solubility thermodynamic at 4 h [7]: 0.025 mg/mL (≈ 40.9 µM); metabolised at 0.5 h, 25 µM [8]: 81%

Q: For `Cc1cn([C@H]2C=C[C@@H](CO)O2)c(=O)[nH]c1=O` [STAVUDINE], which EC50 [4] is on record?
A: 1.3 µM

Q: What about the CC50 [5] of the same molecule?
A: 98 µM

Q: What about the Km [9] of the same molecule?
A: 133 µM

Q: With `C#CCN(C)c1nc(NCCCCC2CCN(Cc3ccccc3)CC2)c(C#N)cc1C#N` as the molecule, how does the IC50 [10] read?
A: > 0.1 µM

Q: Which Kinact [1] does the source give for `C#Cc1c[nH]c(=O)[nH]c1=O` here?
A: 5.64 min⁻¹

Q: For `Oc1ncc(/C=C/Br)c(O)n1`, which Kinact [1] is on record?
A: 0.6 min⁻¹

Q: For `O=c1[nH]cc(Br)c(=O)[nH]1`, which Kinact [1] is on record?
A: 0.42 min⁻¹

Q: Which Vmax [11] does the source give for `CC(c1cc2ccccc2s1)N(O)C(N)=O` (stereo unspecified) [ZILEUTON] here?
A: 1.2 nmol/min/mg

Q: What about the clearance [12] of the same molecule?
A: 0.84 L/h/kg

Q: What about the half-life [2] of the same molecule?
A: 0.4 h

Q: For `CC(/C=C/c1cccc(Oc2ccc(F)cc2)c1)N(O)C(N)=O` (stereo unspecified), which Vmax [11] is on record?
A: 0.19 nmol/min/mg

Q: What about the clearance [12] of the same molecule?
A: 0.12 L/h/kg

Q: And the half-life [2]?
A: 4.7 h

Q: With `C#CC[C@@H](C(=O)N[C@H](/C=C/C(=O)OCC)CC1CCNC1=O)n1cccc(NC(=O)c2cc(C)on2)c1=O` (stereo partly specified) as the molecule, how does the EC50 (Human rhinovirus sp.) read?
A: 0.058 µM

Q: What about the half-life at 25 µM [6] of the same molecule?
A: 6.6 h

Q: What about the solubility thermodynamic at 4 h [7] of the same molecule?
A: 0.377 mg/mL (≈ 720 µM)

Q: What about the metabolised at 0.5 h, 25 µM [8] of the same molecule?
A: 40%

Q: With `CC(C#Cc1cccc(Oc2ccc(F)cc2)c1)N(O)C(N)=O` (stereo unspecified) [FENLEUTON] as the molecule, how does the Vmax [11] read?
A: 0.05 nmol/min/mg

Q: And the clearance [12]?
A: 0.078 L/h/kg

Q: What about the half-life [2] of the same molecule?
A: 5.5 h

Q: For `C/C=C(\c1ccccc1)c1ccc2nc(N)n(S(=O)(=O)C(C)C)c2c1`, which IC50 (Poliovirus 1) is on record?
A: 0.06 mg/L (≈ 0.169 µM)

Q: What about the Cmax [13] of the same molecule?
A: 0.014 to 0.14 µg/mL

Q: With `C#CCN[C@@H]1CCc2ccc(OC(=O)N(C)CC)cc21` [LADOSTIGIL] as the molecule, how does the IC50 [14] read?
A: > 100 µM

Q: Which IC50 (Poliovirus 1) does the source give for `C#C/C=C(\c1ccccc1)c1ccc2nc(N)n(S(=O)(=O)C(C)C)c2c1` here?
A: 0.02 mg/L (≈ 0.0547 µM)

Q: What about the Cmax [13] of the same molecule?
A: 0.07 to 0.3 µg/mL

Q: With `C#C[C@]1(CO)O[C@@H](n2cnc3c(N)nc(F)nc32)C[C@@H]1O` as the molecule, how does the IC50 [15] read?
A: 0.0003 µM

Q: And the CC50 [16]?
A: 19.2 µM

Q: What about the selectivity ratio [17] of the same molecule?
A: > 60000

Q: For `C#C[C@@]1(CO)C=C[C@H](n2cc(C)c(=O)[nH]c2=O)O1` [CENSAVUDINE], which EC50 [4] is on record?
A: 0.25 µM

Q: And the CC50 [5]?
A: > 256 µM

B1: Thymidine kinase, cytosolic (Homo sapiens) (protein)
chain: T2 sequence (P04183 whole entry)
Q: With B1 as the molecule, how does the Km [18] read?
A: 53 µM
